Reference: US20170079979A1, “THERAPY FOR SOLID TUMORS” (Children's Hospital Medical Center, priority 2014, published 2017)
Structures can show the parent of a compound that is named as a salt.

Tests used:
H1703 cells = assay: H1703 lung sarcoma cell survival with EGF and sunitinib (FIG. 3); assay type: cell-based; conditions: concomitant inhibition of Dusp-1 by BCI and c-Fos by either curcumin or DFC (combination), FIG. 3 right panel
Procedure: H1703 cell line was derived from the lung sarcoma, which is driven by PDGFRA as this cell line has amplified the PDGFRA. This group of patients is treated with sunitinib.

RT4 cells = assay: RT4 bladder cancer cell survival with EGF and PLX4032 (FIG. 4); assay type: cell-based; conditions: FIG. 4 right panel; for cell survival: concomitant inhibition of Dusp-1 by BCI and c-Fos by either curcumin or DFC (combination)
Procedure: To determine the effect of c-Fos and Dusp-1 inhibition with the tyrosine kinase inhibitor PLX4032, RT4 cells were assayed, as a model bladder cancer, shown in FIG. 4. This cell line was derived from bladder cancer patients, which has amplification of EGFR.

HCC827 cells = assay: HCC827 lung cancer cell survival with HGF and erlotinib (FIG. 2); assay type: cell-based; conditions: concomitant inhibition of Dusp-1 by BCI and c-Fos by either curcumin or DFC (combination), FIG. 2 right panel
From the text: HCC827 cell line was derived from the lung adenocarcinoma. This lung adenocarcinoma has an acquired mutation in the EGFR tyrosine kinase domain (E746-A750 deletion). […] Most patients develop resistance by acquiring gatekeeper mutation the kinase domain and single TKI treatment is not curative because cancer stem cells are refractory to the treatment. In addition overexpression of growth factor HGF leading to activation of MET is a more frequent way of bypassing the EGFR mediated survival in this tumor model. Besides, cancer stem cells in the presence of growth factor are not addicted to the oncogene.

AU565 cells = assay: AU565 breast cancer cell survival with NRG1 and lapatinib (FIG. 1); assay type: cell-based; conditions: for cell survival: concomitant inhibition of Dusp-1 by BCI and c-Fos by either curcumin or DFC (combination), FIG. 1 right panel
Procedure: AU565 cell line was established from the malignant pleural effusion of the mammary gland, which overexpresses the HER2. This class of tumors is treated by lapatinib. This treatment is not curative and relapse is common because cancer stem cells are not responsive to the treatment.

parental BaF3 cells = conditions: cited from earlier work; for effect of the drug combination: Imatinib combined with BCI
[1] = tested on: leukemia initiating cells (LIC); conditions: cited from earlier work
BaF3-BCR-ABL cells = conditions: Imatinib combined with BCI, cited from earlier work

## COc1cc(/C=C/C(=O)CC(=O)/C=C/c2ccc(O)c(OC)c2)ccc1O [curcumin]
H1703 cells
  cell survival: completely suppresses the cell survival
RT4 cells; combination with BCI
  relative potency of the BCI combination (curcumin versus DFC): more potent
RT4 cells
  cell survival: completely suppresses the cell survival
HCC827 cells
  cell survival: completely suppresses the cell survival
AU565 cells
  cell survival: completely suppresses the cell survival

## Cc1ccc(NC(=O)c2ccc(CN3CCN(C)CC3)cc2)cc1Nc1nccc(-c2cccnc2)n1 [Imatinib, Imatinib mesylate]
Parental BaF3 cells
  effect of the drug combination: no effect
Parental BaF3 cells; inhibition of c-Fos and Dusp-1 together with Imatinib treatment
  survival and apoptosis: no effect
[1]
  survival of patients with leukemia: improved the survival
[1]; patients with leukemia
  elimination of leukemia initiating cells (LIC): did not eliminate

## CS(=O)(=O)CCNCc1ccc(-c2ccc3ncnc(Nc4ccc(OCc5cccc(F)c5)c(Cl)c4)c3c2)o1 [lapatinib]
AU565 cells; addition of NRG1, lapatinib
  TKI response on addition of growth factor: confer resistance

## COc1cc(/C=C/C(=O)C(=Cc2ccc(F)c(F)c2)C(=O)/C=C/c2ccc(O)c(OC)c2)ccc1O [DFC, difluorinated curcumin]
H1703 cells
  cell survival: completely suppresses the cell survival
RT4 cells
  cell survival: completely suppresses the cell survival
AU565 cells
  cell survival: completely suppresses the cell survival

## O=C1/C(=C/c2ccccc2)C(NC2CCCCC2)c2ccccc21 (centres unmarked) [BCI, (E)-2-benzylidene-3-(cyclohexylamino)-2,3-dihydro-1H-inden-1-one]
BaF3-BCR-ABL cells; BCR-ABL positive cells
  effect of the drug combination: no effect
BaF3-BCR-ABL cells; BaF3-BCR-ABL cells with c-Fos knockdown
  sensitivity in cell proliferation assay: fully sensitive
Parental BaF3 cells
  effect of the drug combination: no effect
H1703 cells
  cell survival: completely suppresses the cell survival
RT4 cells
  cell survival: completely suppresses the cell survival
HCC827 cells
  cell survival: completely suppresses the cell survival
AU565 cells
  cell survival: completely suppresses the cell survival
